Activity calls are given as the source filed them.
Columns and labels:
[1] = biological target: T1, Caspase-3 (Homo sapiens, UniProt P42574); experiment: SAR Analysis of small molecule inhibitors of Sentrin-specific proteases (SENPs) using a Caspase-3 Selectivity assay. [Related pubchem assays (depositor defined):AID2540, AID2599, AID434973, AID489001]; format: functional
T1 sequence (P42574 whole entry): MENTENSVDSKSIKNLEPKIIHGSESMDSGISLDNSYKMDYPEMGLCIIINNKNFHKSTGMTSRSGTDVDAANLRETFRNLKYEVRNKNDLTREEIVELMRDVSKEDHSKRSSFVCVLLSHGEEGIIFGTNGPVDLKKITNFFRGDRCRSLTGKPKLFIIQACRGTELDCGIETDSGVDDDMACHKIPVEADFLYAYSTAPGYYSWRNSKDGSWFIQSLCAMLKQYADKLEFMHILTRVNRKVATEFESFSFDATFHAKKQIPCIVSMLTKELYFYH

[2] = biological target: Leucine-rich repeat serine/threonine-protein kinase 2 (Homo sapiens, UniProt Q5S007); format: functional;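 further: value from a broad kinome-wide panel profiling study in which LRRK2 was one of the kinases tested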
[3] = biological target: Dual specificity tyrosine-phosphorylation-regulated kinase 1B (Homo sapiens, UniProt Q9Y463); experiment: Navigating the Kinome. Panel member name: DYRK1B; format: functional
[4] = biological target: cAMP-dependent protein kinase catalytic subunit PRKX (Homo sapiens, UniProt P51817); format: functional
[5] = biological target: Tyrosine-protein kinase ABL1 (Homo sapiens, UniProt P00519); format: functional
[6] = biological target: Platelet-derived growth factor receptor beta (Homo sapiens, UniProt P09619); format: functional;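 further: value comes from a kinome panel, with PDGFRB tested as one panel member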
[7] = biological target: Activated CDC42 kinase 1 (Homo sapiens, UniProt Q07912); experiment: Navigating the Kinome. Panel member name: ACK1; format: functional
[8] = biological target: BDNF/NT-3 growth factors receptor (Homo sapiens, UniProt Q16620); format: functional;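 further: NTRK2 measured as one member of a broad kinome-wide kinase profiling panel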
[9] = biological target: Vascular endothelial growth factor receptor 2 (Homo sapiens, UniProt P35968); format: functional
[10] = biological target: Fibroblast growth factor receptor 1 (Homo sapiens, UniProt P11362); format: functional
[11] = biological target: Tyrosine-protein kinase JAK3 (Homo sapiens, UniProt P52333); format: functional
[12] = biological target: Vascular endothelial growth factor receptor 1 (Homo sapiens, UniProt P17948); format: functional;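 further: measured within a kinome-wide profiling panel, FLT1 as the panel member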
[13] = biological target: Macrophage colony-stimulating factor 1 receptor (Homo sapiens, UniProt P07333); format: functional;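 further: value comes from the Navigating the Kinome screening panel, CSF1R member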
[14] = biological target: Cyclin-dependent kinase 7 (Homo sapiens, UniProt P50613); format: functional;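 further: value comes from a kinome-wide kinase profiling panel in which CDK7 is one member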
[15] = biological target: Dual specificity protein kinase CLK2 (Homo sapiens, UniProt P49760); format: functional
[16] = biological target: Dual specificity protein phosphatase 3 (Homo sapiens, UniProt P51452); experiment: VHR1 phosphatase inhibitors, biochemical (AID 1878)
[17] = fluconazole-exposed Candida albicans growth modulators – fluorescence, retest, confirmation (AID 2467); format: functional, cell-based
[18] = biological target: T2, ORF 73 (Human herpesvirus 8, UniProt O40947); experiment: KSHV LANA DNA-binding disruption – biochemical, fluorescence polarization, cherry-picked samples, dose response (AID 504725); set-up: species or system Human gammaherpesvirus 8;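 further: fluorescence polarization of a labeled DNA duplex reporting LANA DNA binding; potency is for inhibitors that block LANA binding to the DNA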
T2 sequence (O40947 whole entry): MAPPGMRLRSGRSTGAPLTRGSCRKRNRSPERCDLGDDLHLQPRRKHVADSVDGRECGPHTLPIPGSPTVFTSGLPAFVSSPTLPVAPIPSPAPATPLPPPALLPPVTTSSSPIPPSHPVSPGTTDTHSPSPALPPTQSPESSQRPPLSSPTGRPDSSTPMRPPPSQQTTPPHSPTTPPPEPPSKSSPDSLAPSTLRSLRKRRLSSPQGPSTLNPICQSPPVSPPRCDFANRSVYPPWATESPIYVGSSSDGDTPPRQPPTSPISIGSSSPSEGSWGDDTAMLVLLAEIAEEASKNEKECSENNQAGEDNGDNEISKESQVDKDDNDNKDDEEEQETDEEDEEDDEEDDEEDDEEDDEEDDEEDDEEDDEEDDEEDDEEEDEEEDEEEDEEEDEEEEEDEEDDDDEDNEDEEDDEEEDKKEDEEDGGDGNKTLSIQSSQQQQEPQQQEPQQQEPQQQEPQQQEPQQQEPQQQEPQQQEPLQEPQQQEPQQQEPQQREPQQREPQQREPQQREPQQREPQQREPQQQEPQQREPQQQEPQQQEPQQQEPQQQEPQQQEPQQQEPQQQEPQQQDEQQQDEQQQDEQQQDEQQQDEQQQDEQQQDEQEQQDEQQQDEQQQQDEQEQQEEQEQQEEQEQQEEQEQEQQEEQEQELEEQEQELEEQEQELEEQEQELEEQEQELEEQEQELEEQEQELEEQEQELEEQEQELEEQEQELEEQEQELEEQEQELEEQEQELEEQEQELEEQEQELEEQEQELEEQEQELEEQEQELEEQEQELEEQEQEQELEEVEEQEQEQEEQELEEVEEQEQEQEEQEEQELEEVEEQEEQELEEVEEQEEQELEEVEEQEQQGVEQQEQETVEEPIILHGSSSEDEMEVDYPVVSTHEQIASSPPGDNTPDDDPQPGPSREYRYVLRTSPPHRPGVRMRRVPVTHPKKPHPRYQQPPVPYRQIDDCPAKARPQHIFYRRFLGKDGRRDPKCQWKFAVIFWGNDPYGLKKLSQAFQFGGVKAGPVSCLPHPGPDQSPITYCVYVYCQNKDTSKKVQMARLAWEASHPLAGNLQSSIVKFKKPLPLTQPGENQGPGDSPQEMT

[19] = tested on: HEK293; experiment: optical interference in Abeta FP readout, dose response, artefact control for IDE activator project, biochemical, fluorescence polarization (AID 588442); format: functional, cell-based; details: Homo sapiens

Chain of Tyrosine-protein kinase ABL1 (P00519 whole entry): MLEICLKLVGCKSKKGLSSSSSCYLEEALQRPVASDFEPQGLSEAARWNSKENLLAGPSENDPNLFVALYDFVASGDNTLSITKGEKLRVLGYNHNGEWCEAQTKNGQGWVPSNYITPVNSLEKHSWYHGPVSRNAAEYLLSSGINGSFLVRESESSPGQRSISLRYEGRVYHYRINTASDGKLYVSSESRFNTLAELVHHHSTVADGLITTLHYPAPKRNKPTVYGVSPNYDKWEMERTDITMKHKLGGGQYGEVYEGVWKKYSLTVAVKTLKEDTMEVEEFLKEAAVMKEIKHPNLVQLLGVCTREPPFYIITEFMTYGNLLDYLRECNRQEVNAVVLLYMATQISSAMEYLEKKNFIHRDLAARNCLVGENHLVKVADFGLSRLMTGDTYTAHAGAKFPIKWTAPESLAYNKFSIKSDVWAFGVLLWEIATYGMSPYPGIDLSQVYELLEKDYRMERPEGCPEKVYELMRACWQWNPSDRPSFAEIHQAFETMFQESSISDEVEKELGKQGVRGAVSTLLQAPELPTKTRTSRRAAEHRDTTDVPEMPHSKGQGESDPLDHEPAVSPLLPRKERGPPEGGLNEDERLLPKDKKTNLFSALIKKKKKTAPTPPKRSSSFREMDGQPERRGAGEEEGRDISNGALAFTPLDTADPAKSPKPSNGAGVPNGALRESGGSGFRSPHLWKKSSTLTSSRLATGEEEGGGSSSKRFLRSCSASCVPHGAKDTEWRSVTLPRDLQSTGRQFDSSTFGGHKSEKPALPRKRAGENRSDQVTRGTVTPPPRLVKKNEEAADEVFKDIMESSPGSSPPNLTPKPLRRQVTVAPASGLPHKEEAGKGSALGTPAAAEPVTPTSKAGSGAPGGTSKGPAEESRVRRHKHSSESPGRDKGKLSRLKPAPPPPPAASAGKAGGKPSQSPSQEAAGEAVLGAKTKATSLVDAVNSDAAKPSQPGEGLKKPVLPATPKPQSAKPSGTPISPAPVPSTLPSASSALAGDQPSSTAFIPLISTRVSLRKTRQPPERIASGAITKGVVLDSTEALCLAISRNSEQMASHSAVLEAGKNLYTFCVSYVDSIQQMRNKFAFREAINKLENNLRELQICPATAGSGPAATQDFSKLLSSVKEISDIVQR
Chain of Platelet-derived growth factor receptor beta (P09619 whole entry): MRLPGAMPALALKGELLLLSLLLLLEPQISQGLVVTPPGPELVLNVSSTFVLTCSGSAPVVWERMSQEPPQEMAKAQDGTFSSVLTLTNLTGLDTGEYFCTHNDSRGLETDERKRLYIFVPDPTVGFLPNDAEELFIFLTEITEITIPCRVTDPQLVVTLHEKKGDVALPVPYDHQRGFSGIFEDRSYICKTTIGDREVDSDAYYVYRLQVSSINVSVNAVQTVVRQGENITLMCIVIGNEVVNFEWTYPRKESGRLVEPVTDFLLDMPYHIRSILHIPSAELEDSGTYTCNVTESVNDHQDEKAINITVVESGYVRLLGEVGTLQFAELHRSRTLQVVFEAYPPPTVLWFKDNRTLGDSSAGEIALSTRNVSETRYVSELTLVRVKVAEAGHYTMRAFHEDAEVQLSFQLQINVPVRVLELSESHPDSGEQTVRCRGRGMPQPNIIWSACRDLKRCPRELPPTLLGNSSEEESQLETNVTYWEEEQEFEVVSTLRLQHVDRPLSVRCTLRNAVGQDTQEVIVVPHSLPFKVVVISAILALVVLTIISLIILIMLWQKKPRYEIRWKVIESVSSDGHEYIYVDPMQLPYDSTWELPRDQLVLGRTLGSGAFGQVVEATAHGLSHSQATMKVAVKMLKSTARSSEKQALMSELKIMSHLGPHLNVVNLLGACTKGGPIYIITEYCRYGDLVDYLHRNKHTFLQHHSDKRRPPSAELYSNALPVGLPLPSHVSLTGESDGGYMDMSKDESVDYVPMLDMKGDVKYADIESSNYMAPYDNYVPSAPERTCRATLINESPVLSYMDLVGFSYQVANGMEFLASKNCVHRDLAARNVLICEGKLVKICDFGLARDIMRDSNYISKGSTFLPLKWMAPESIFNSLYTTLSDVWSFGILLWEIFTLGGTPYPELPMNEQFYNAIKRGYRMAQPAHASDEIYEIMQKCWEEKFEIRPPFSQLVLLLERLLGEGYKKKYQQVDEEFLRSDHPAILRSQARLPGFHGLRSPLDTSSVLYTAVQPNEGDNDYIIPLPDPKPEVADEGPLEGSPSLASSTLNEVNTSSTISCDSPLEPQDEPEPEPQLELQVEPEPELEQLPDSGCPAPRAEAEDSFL
Chain of cAMP-dependent protein kinase catalytic subunit PRKX (P51817 whole entry): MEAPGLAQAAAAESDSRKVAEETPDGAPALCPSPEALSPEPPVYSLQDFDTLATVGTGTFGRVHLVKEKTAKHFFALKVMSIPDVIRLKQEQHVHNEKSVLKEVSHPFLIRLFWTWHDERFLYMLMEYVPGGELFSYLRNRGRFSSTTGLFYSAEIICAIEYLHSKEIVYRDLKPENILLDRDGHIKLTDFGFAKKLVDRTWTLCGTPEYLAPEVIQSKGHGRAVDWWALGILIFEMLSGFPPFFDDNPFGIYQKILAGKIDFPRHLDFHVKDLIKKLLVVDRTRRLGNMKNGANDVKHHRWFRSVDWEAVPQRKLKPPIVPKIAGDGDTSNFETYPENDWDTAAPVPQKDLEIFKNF
Chain of Fibroblast growth factor receptor 1 (P11362 whole entry): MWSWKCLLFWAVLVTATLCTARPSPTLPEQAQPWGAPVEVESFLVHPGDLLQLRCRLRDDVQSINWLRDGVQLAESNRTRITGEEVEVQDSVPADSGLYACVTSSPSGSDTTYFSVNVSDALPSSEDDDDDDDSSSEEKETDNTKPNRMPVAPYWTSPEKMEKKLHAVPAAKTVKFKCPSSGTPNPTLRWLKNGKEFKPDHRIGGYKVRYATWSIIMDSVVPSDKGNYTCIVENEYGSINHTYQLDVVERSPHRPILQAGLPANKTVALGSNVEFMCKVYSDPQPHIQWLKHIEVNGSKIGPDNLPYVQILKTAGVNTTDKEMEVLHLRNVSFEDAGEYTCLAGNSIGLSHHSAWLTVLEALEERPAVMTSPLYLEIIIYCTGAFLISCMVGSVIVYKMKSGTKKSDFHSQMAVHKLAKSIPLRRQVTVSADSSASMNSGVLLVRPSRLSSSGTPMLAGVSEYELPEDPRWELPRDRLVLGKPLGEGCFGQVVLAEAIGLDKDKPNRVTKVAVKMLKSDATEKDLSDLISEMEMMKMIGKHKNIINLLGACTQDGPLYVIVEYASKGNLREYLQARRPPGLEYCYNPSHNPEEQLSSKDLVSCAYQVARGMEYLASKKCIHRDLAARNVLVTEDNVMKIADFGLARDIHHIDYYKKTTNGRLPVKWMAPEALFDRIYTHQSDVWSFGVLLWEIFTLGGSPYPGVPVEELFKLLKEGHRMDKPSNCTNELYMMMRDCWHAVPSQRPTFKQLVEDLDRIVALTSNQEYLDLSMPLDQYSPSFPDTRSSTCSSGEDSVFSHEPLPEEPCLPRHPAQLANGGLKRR
Chain of BDNF/NT-3 growth factors receptor (Q16620 whole entry): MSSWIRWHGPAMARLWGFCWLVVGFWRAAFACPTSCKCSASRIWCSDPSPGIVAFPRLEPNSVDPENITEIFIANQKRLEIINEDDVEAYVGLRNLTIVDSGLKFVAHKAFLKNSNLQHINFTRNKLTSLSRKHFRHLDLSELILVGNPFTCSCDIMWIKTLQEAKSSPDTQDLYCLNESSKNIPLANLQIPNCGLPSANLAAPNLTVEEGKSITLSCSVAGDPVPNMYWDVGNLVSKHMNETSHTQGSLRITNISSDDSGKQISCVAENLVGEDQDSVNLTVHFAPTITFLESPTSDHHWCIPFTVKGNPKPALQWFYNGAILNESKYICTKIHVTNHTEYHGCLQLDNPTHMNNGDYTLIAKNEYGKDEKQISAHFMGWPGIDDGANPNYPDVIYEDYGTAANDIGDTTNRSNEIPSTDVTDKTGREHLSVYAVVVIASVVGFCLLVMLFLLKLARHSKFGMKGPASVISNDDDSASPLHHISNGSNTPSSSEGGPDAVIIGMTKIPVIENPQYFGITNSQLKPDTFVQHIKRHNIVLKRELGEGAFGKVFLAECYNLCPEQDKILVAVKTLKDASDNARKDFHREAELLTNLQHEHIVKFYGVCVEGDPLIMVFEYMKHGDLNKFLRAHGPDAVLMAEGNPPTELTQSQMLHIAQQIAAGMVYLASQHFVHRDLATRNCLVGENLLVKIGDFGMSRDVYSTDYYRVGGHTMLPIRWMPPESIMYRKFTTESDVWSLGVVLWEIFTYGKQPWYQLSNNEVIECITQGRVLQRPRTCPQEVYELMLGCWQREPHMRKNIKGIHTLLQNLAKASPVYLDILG
Chain of Cyclin-dependent kinase 7 (P50613 whole entry): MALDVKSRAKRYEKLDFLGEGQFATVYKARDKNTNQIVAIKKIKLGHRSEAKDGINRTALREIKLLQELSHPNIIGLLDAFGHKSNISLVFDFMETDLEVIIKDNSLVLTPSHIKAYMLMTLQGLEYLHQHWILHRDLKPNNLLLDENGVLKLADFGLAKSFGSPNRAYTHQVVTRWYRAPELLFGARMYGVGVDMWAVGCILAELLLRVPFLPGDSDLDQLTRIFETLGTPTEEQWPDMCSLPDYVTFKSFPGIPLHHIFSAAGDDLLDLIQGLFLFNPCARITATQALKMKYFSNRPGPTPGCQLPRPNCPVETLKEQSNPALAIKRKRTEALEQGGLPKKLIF
Chain of Dual specificity protein phosphatase 3 (P51452 whole entry): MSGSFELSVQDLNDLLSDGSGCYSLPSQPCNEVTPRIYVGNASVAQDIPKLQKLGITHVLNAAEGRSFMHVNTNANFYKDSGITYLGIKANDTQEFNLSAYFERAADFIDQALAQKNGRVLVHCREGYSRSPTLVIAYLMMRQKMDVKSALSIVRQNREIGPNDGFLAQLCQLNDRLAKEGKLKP

Structure (SMILES): O=C(NNc1cc(N2CCCC2)nc(N2CCCC2)n1)c1ccc([N+](=O)[O-])cc1
- IC50 [1]: 16.5 µM (active)

Structure (SMILES): O=C(Cc1cccs1)Nc1nc2ccccc2s1
- Ki [2]: 794 nM (active)
- Ki [3]: 794 nM (active)
- Ki [4]: 1.26 µM (active)
- Ki [5]: > 2.51 µM (inactive)
- Ki [6]: > 2 µM (inactive)
- Ki [7]: > 3.98 µM (inactive)
- Ki [8]: > 3.98 µM (inactive)
- Ki [9]: > 2.51 µM (inactive)
- Ki [10]: 631 nM (active)
- Ki [11]: > 5.01 µM (inactive)
- Ki [12]: 3.16 µM (active)
- Ki [13]: > 2.51 µM (inactive)
- Ki [14]: 1 µM (active)
- Ki [15]: > 3.98 µM (inactive)

Structure (SMILES): O=S(=O)(O)c1cccc2c(N=Nc3ccc(O)c4ncccc34)cccc12
- IC50 [16]: 1.7 µM (active)
- EC50 [17]: > 38 µM (not active)
- AC50 [18]: 64.1 µM (active)
- EC50 [19]: 5.53 µM (active)
